From patent US20200399329A1, “ANTIMICROBIAL PEPTIDES” (priority 2015, published 2020)
≈ marks a conversion by molar mass, not a printed value. Where “and” joins values, the source holds several entries; their conditions need not be identical. Identical values can stand only once. Where a SMILES comes first, the peptide text is derived from it.

What was measured:
E. coli = E. coli growth monitored via OD600 nm with CecA or OMN6; format: cell-based
Description: An assay was conducted in order to compare the antimicrobial activity of the native peptide Cecropin A (CecA) vs. a peptide of the invention OMN6. E. coli bacteria were cultured with CecA or OMN6 in concentration of 12.5 μM for 17-20 hours. The growth of the bacteria was continuously monitored via spectrophotometry at 600 nm. As bacterial growth progresses, OD600 nm values rise, and where the growth is inhibited OD600 nm values remain constant. […] The bacteria completely overcame the inhibitory effect of CecA after 10 hours. The bacteria then continued to thrive and grow to density similar to that of the CTRL group.

E. coli ESBL BAA-198 = format: cell-based, Escherichia coli
Description: In order to determine the Minimal Bactericidal Concentration (MBC) values of the peptides, colony formation of various bacteria strains was monitored and determined after treatment with the peptides of the invention. Multi-Drug Resistant A. baumannii bacteria were cultured with or without OMN6 in increasing concentrations, as is detailed in FIG. 6 and Example 6. Immediately afterwards, samples of each experimental group were diluted to 1×10^4 to 1×10^6 as necessary, and further, the samples were plated on appropriate medium-agar plates. All the plates were incubated at 37° C. for 24-48 hours. Colonies were counted and CFU/ml in the original sample, prior to plating, were calculated and determined. An example of the plates, after incubation, is presented in FIG. 7 where the plate on the left side of the image is the CTRL sample treated with DDW and in the right side of the image increasing concentrations of OMN6 are presented, as specified therein.
The experimental system and parameters described here were used to determine the MBC values of OMN2, OMN6, OMN7 and OMN11 on various bacteria strains with and without the supplementation of 10% FBS (Table 6 and Table 8).

[1] = Preliminary topical safety in mice; format: in vivo; details: topical single dose 0.5-4 mg/kg
Description: The antimicrobial peptide OMN6 was administered to mice in order to evaluate and quantify whether toxic effects are present. OMN6 peptide (C195H332N56O49S3) was administered topically according to concentrations and groups detailed in Table 9.
Mice approved for this experiment: Outbred Hsd:ICR (CD-1®)—weight 18-20 g. Saline solution (0.9% NaCl) as sham treatment or OMN6 dissolved in saline were administered directly onto the skin of mice after the hair was shaved. A total volume of 16 μl was administered to each animal.
In this experiment, the peptide OMN6 of the invention was administered in a single dose, at four different concentrations (mg/kg). Mortality of mice in all experiment groups was monitored in comparison to a Sham (CTRL) group. Food and water consumption, post treatment, was monitored by individual weight measurements once every two days. At the end of the experiment, blood was taken from all animals and 200 μl of blood was separated and plasma was analyzed for erythrocyte hemolysis. • Experimental Map: • 1. Mice (six per group) were given a single-dose administration on day 1, according to group specification (Table 9). Food and water consumption (weight analysis) along with mortality of mice in all groups were monitored for four days post treatment. At the end of the five day trial, the animals were sacrificed. • 2. Free Hgb (hemoglobin) assay was performed on day 5, on all samples from all groups, for erythrocyte hemolysis analysis. • 3. Water/food availability, temperature and other conditions remained unchanged between the groups for the entire five day trial. • 4. Erythrocyte hemolysis analysis was performed via hemoglobin assay kit (Sigma-Aldrich, 3 Plaut St. Rehovot, Israel).

[2] = tested on: Escherichia coli (ATCC BAA-198) ESBL; experiment: Efficacy in mouse model of subcutaneous infection with E. coli; format: in vivo, mice
Description: Animals: Healthy adult female mice weighing 16-20 g were used. CD-I outbred (Harlan Breeding Labs, Jerusalem, Israel) were used in all experiments. Animals were caged in groups of 5-10 and were maintained on chow (Ralston Purina) and water ad-libitum.
Bacteria: Escherichia coli (ATCC BAA-198) is an extended spectrum beta-lactamase (ESBL) TEM-26 multi drug resistant strain. Stock cultures were grown in Tryptic Soy Broth (TSB) (Becton, Dickinson and company BD. Maryland, USA) at 37°.
Colonies were counted after incubation for 24 hours on TSB-agar (BD), and results were expressed as colony forming units (CFU)/ml.
Inoculum: All broth cultures were adjusted to 1×10^8 CFU/animal for the challenge dose by adding TSB to a final volume of 50 μl. Bacteria were administered via subcutaneous (SC) injection with tuberculin syringes capped with 29-gauge needles. Recipient animals had the right flank shaved and depilated with hair remover cream (ORNA19, Israel). To inject the inoculum, the needle was inserted SC 1 cm lateral to the thoracic spine and just anterior to the right hind extremity. The needle was tracked anteriorly and SC for 1 cm; then 50 μl of inoculum was injected.
OMN6 peptide at 8 mg/kg in a total volume of 80 μl was injected SC after one hour to the same area. All animals appeared well and fully active within 2-4 hours after this procedure. All animals were monitored for food and water consumption, mortality and any other adverse effects for the entire 5-day duration of the experiment.
Evaluation of Bacterial Burden: A 2 cm^2 area of skin was incised and the inner side, where the abscess was located, was scraped with a sterile scalpel. Scraped tissue was filtered through a 40 μm cell-strainer. Filtered mass was collected, centrifuged at 500 RPM for 2 minutes and a sample from the supernatant was plated on TBS-agar plates for 24 hours at 37°. Colonies were then counted and results are presented as CFU/abscess (see FIG. 10A).
Evaluation of Abscesses: Animals were assessed for the presence and size of abscesses on day 5. The animals were anesthetized (Ketamine 225 mg/kg/Xylazine 6 mg/kg BW IP), the right hind flank area was gently exposed by aseptic technique. Abscesses were recorded and then measured by calipers: the product of the longest diameter (D) and corresponding perpendicular diameter (d) was determined as “abscess size” (D×d) findings presented in mm^2 (see FIG. 10B).

[3] = mice, SC 1×10^8 CFU E. coli ESBL, OMN6 8 mg/kg SC after one hour, day 5

CC[C@H](C)[C@H](NC(=O)CNC(=O)[C@H](CC(=O)O)NC(=O)[C@H](CCCNC(=N)N)NC(=O)[C@@H](NC(=O)[C@H](CC(N)=O)NC(=O)[C@H](CCC(N)=O)NC(=O)CNC(=O)[C@@H](NC(=O)[C@H](CCCCN)NC(=O)[C@H](CCC(=O)O)NC(=O)[C@@H](NC(=O)[C@H](CCCCN)NC(=O)[C@H](CCCCN)NC(=O)[C@H](Cc1ccccc1)NC(=O)[C@H](CC(C)C)NC(=O)[C@H](CCCCN)NC(=O)[C@H](Cc1c[nH]c2ccccc12)NC(=O)[C@H](CCCCN)NC(=O)[C@H](CS)NC(=O)[C@@H](N)CCSC)[C@@H](C)CC)C(C)C)[C@@H](C)CC)C(=O)N[C@H](C(=O)N[C@@H](CCCCN)C(=O)N[C@@H](C)C(=O)NCC(=O)N1CCC[C@H]1C(=O)N[C@@H](C)C(=O)N[C@H](C(=O)N[C@@H](C)C(=O)N[C@H](C(=O)N[C@H](C(=O)NCC(=O)N[C@@H](CCC(N)=O)C(=O)N[C@@H](C)C(=O)N[C@H](C(=O)N[C@@H](CCC(N)=O)C(=O)N[C@H](C(=O)N[C@@H](C)C(=O)N[C@@H](CCCCN)C(=O)N[C@@H](CS)C(N)=O)[C@@H](C)CC)[C@@H](C)O)C(C)C)C(C)C)C(C)C)[C@@H](C)CC [OMN6] (H-MCKWKLFKKIEKVGQNIRDGIIKAGPAVAVVGQATQIAKC-NH2; N-terminus and C-terminus assumed)
Inhibition of E. coli growth (OD600 nm) (E. coli; 12.5 μM, 17-20 hours): completely inhibited bacterial growth | Duration of growth inhibition (E. coli; 12.5 μM, E. coli): more than 17 hours | Colonies after plating (bactericidal nature) (E. coli; E. coli, experiment groups of Example 2 plated): no colonies present | MBC (E. coli ESBL BAA-198): 5 µM (≈ 21.7 µg/mL) | Clinical signs (diarrhea, bloody diarrhea, stand-on-end hair, apathy or restlessness) ([1]; 5-day experiment): not observed | Mortality ([1]; 5-day experiment): not observed | Toxic or otherwise adverse effects ([1]; 5-day experiment): does not exert any toxic or otherwise adverse effects | Weight-loss ([1]; 5-day experiment): not observed | Hemolysis of erythrocytes (Free Hgb assay) ([1]; day 5): No evidence of hemolysis | Decrease in abscess size ([2]; OMN6 8 mg/kg SC versus sham-saline): 80% | Decrease in bacteria burden ([2]; OMN6 8 mg/kg SC versus sham-saline, 8 mg/kg): 93.3% and 94% | Average size of the abscesses (D×d) [2, 3]: 7.25 mm^2 | Bacteria burden [2, 3]: 20 CFU/mouse
